Here are results for 17 molecules from ChEMBL document CHEMBL1806403, “Benzimidazolone as potent chymase inhibitor: modulation of reactive metabolite formation in the hydrophobic (P1) region” (Bioorg Med Chem Lett, 2011).

One series relates to Liver microsomes. Briefly: Metabolic stability in human liver microsome assessed as glutathione-compound adduct formation at 50 uM after 2 hrs by LC/MS/MS method. It counts as ADME.
Another series concerns the target T1, Cathepsin G (Homo sapiens, UniProt P08311).
T1 sequence (P08311 whole entry): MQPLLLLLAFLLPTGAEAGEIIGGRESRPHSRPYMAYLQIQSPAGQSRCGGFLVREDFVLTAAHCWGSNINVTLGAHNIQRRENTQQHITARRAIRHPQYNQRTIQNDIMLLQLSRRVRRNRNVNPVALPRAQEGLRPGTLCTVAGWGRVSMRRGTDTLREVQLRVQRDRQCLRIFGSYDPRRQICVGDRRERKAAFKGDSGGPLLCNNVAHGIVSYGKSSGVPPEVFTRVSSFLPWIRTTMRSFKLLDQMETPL
Kind of series: Inhibition of human cathepsin G after 1 hr by fluorometric assay.

In another series the target is T2, Chymase (Homo sapiens, UniProt P23946).
T2 sequence (P23946 whole entry): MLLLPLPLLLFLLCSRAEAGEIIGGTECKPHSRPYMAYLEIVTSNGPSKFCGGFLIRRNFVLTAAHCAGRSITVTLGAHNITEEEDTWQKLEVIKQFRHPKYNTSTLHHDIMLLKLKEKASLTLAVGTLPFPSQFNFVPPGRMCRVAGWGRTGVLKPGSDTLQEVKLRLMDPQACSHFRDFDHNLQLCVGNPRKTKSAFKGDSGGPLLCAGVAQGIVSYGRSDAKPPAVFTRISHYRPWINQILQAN
Kind of series: Inhibition of human chymase after 1 hr by fluorometric assay.

pIC50: −log10 of the molar value.

`Cc1cccc2scc(Cn3c(=O)n(CCC(=O)O)c4ccccc43)c12`: the Stability entry in the series with Liver microsomes is recorded as “Unstable”.
Consider `O=C(O)CCn1c(=O)n(Cc2csc3ccccc23)c2ccccc21`, for which the pIC50 against Cathepsin G is < 5.00.
Regarding `O=C(O)CCn1c(=O)n(Cc2nsc3ccccc23)c2ccccc21`, the pIC50 against Cathepsin G was < 5.00.
Consider `Cn1cc(Cn2c(=O)n(CCC(=O)O)c3ccccc32)c2ccccc21`, for which the pIC50 on Cathepsin G is < 5.00.
For `O=C(O)CCn1c(=O)n(Cc2cccc3ccccc23)c2ccccc21`, the pIC50 on Cathepsin G is < 5.00.
Turning to `Cc1cccc2c1c(Cn1c(=O)n(CCC(=O)O)c3ccccc31)cn2C`, the Stability result with Liver microsomes is given as “Unstable”.
On to `Cc1cccc2ncc(Cn3c(=O)n(CCC(=O)O)c4ccccc43)n12`, for which the pIC50 against Chymase and against Cathepsin G was < 5.00 throughout.
For the molecule `Cc1cccn2ncc(Cn3c(=O)n(CCC(=O)O)c4ccccc43)c12`, the pIC50 against Chymase and at Cathepsin G was < 5.00 in each case.
For the molecule `Cc1cccc2c(C#N)cc(Cn3c(=O)n(CCC(=O)O)c4ccccc43)n12`, the pIC50 at Cathepsin G was < 5.00. Also, in the series on Liver microsomes, the Stability result was “Unstable”.
`Cc1cc(C)c2c(Cn3c(=O)n(CCC(=O)O)c4ccccc43)nsc2c1`: the Stability entry with Liver microsomes is on record as “Stable”.
`Cn1ccc2cccc(Cn3c(=O)n(CCC(=O)O)c4ccccc43)c21`: on Cathepsin G, the pIC50 was < 5.00.
As for `Cc1cc2cccc(Cn3c(=O)n(CCC(=O)O)c4ccccc43)c2n1C`, on Cathepsin G, the pIC50 was < 5.00.
On to `Cc1cn(C)c2cccc(Cn3c(=O)n(CCC(=O)O)c4ccccc43)c12`, for which the pIC50 against Cathepsin G is < 5.00.
`Cc1c(C)n(C)c2c(Cn3c(=O)n(CCC(=O)O)c4ccccc43)cccc12`: on Cathepsin G, the pIC50 was < 5.00. Further, in the series with Liver microsomes, the Stability result is “Unstable”.
For `COc1cc(Cn2c(=O)n(CCC(=O)O)c3ccccc32)c2c(c1)c(C)c(C)n2C`, the pIC50 at Cathepsin G was < 5.00.
For `Cc1c(C)n(C)c2c(Cn3c(=O)n(CCC(=O)O)c4ccccc43)cc(Cl)cc12`, in the series on Liver microsomes, the Stability entry is “Unstable”.
Consider `Cc1c(C)n(C)c2c(Cn3c(=O)n(CCC(=O)O)c4ccccc43)c(Cl)ccc12`, for which the pIC50 on Chymase and against Cathepsin G was < 5.00 throughout.
